This is an account of results in patent US8354400B2, “Benzoxazole compounds and methods of use” (Eisai R&D Co., Ltd., priority 2008, dated 2013).

In one series the target is T1, human TLR7 (Homo sapiens, UniProt Q9NYK1).
T1 construct: expressed in transfected cells; host or cells: HEK cell line (HEK293, as in the primary assay)
T1 sequence (Q9NYK1 27-1049): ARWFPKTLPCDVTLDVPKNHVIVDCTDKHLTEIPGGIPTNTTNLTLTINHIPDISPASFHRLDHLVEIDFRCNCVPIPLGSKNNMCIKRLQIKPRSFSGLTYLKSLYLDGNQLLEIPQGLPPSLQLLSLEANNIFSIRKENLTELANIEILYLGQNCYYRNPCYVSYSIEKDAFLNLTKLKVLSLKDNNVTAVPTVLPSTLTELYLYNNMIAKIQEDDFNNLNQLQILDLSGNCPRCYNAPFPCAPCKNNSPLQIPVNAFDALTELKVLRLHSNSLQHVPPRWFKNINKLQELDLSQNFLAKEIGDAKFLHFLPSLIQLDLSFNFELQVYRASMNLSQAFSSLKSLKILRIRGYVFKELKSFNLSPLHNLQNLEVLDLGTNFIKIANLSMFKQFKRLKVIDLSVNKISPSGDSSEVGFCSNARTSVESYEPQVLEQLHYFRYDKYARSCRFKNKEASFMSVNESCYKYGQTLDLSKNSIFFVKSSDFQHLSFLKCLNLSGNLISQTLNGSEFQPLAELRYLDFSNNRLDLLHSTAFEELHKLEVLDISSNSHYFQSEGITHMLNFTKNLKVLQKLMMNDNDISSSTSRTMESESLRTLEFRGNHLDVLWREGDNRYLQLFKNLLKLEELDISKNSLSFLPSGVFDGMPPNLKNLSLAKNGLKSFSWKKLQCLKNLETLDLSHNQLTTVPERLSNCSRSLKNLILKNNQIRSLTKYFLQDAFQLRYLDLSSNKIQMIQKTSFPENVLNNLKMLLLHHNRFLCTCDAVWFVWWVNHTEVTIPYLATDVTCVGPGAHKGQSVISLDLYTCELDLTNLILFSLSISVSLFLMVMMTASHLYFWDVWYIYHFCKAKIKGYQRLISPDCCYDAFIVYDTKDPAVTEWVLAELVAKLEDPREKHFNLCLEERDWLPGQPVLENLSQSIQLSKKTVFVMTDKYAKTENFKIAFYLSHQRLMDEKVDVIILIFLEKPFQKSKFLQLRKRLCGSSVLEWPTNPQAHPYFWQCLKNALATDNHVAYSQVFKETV
The series is described as follows: HEK/TLR7 activation assay (R848 stimulation). The format is cell-based. The following applies: HEK cells transfected with human TLR7. The procedure: (1) HEK/TLR7Activation Assay: The same compounds were tested in the same way as the primary assay with the following differences. The plasmid used to transfect the HEK cell line encoded for human TLR7 instead of TLR9, and R848 was used to stimulate the cells instead of Oligo CpG 2006.

In series [1] the test system is mouse spleen IL-6 production in response to Oligo CpG 1668. Nature of the series: Splenocyte CpG 1668 assay (IL-6 ELISA). Type of series: cell-based. The note with it: mouse splenocytes, Oligo CpG 1668, 72 hrs. As to the method: (2) Splenocyte CpG 1668 Assay: Some of the compounds tested in the primary assay were also assayed for suppression of mouse spleen IL-6 production in response to stimulation with Oligo CpG 1668, a synthetic phosphorothioate oligonucleotide (Krieg et al. Nature. 374:546-9 (1995)), with nucleotide sequence [NT] (SEQ ID NO:2). Each compound was added to dissociated splenocytes before addition of stimulatory oligonucleotide. Cells were stimulated in culture for 72 hrs and the supernatant was removed for ELISA analysis of IL-6 level. Here the IC50 is defined as the concentration of compound that suppresses cytokine production to 50% of that observed in the absence of compound, i.e., full stimulation.
(In general: In an ELISA, binding on a coated surface is turned into a signal by an enzyme label.)

The test system of series [2] is human PBMC α-interferon response to Oligo CpG 2216. The series is described as follows: PBMC CpG 2216 assay (α-interferon ELISA). The format is cell-based. The following applies: Oligo CpG 2216, 72 hrs, read-out: PBMC CpG2216 IC50. As to the method: (4) PBMC CpG 2216 Assay: A subset of compounds tested as described above were also assayed for suppression of human peripheral blood mononuclear cells (PBMC) α-interferon response to stimulation with Oligo CpG 2216, a synthetic oligo phosphorothioate/phosphodiester oligonucleotide (Vollmer et al. Eur J. Immunol. 34:251-62 (2004)), with nucleotide sequence 5′-ggG GGA CGA TCG TCg ggg gG-3′ (small letters indicate phosphorothioate linkages, all others are phosphodiester) (SEQ ID NO:3). Each compound was added to […] from healthy volunteer donors before addition of stimulatory oligonucleotide. Cells were stimulated in culture for 72 hrs and the supernatant was removed for ELISA analysis of α-interferon level was performed using a VeriKine™ Human IFN-Alpha ELISA kit (Pestka Biomedical Laboratories, N.J.).

The subject of series [3] is serum IL-6 after s.c. oligo CpG 1668 challenge. Nature of the series: In vivo short term CpG stimulation assay (serum IL-6). The arrangement: species or system mice. The note with it: for inhibition in vivo at 20 mg/kg: Mus musculus, po, 2 h, mice, oral in water, s.c. 30 micrograms oligo CpG 1668 within 90 minutes, serum two hours later, repeat assays separated by commas, read-out: Percent short-term IL-6 suppression; for suppression of IL-6 (Table 3): 1.5 hours after oral administration of 20 mg/kg. As to the method:
Short Term CpG Stimulation Assay: Compounds identified as having potency in the HEK/TLR9 and splenocyte CpG 1668 assays described in Example 9, above, were tested in an in vivo short term CpG stimulation assay. Mice were orally administered compound in water, and challenged within 90 minutes by subcutaneous (s.c.) injection of 30 micrograms of oligo CpG 1668. Two hours later serum was taken and assayed for IL-6 using ELISA analysis. Results from assays repeated on different dates are set forth as multiple numbers separated by commas.

The next series concerns NZBWF1/J mice. Nature of the series: NZBWF1/J spontaneous lupus model. Type of series: in vivo. The note with it: for anti-dsDNA: 16 weeks of treatment, 20 mg/kg or 60 mg/kg p.o.; for body weight: after 3 to 4 months of dosing; for distribution of ANA scores: after 12 weeks of treatment. The procedure:
An in vivo study of Compound 23 and Compound 30 was conducted in an NZBWF1/J mouse model. Mice were obtained from Jackson Laboratories, divided into groups of 12, and dosed orally with compounds in water five days a week beginning at 5 months of age.

Series [4] relates to lymph node IL-6 release on CpG 1668 stimulation. The series is described as follows: Lymph node response: in vivo dosing, ex vivo CpG 1668 stimulation, IL-6 ELISA. The following applies: for IL-6 release in the lymph nodes: mice, oral 20 mg/kg or 60 mg/kg daily for two weeks, ex vivo CpG 1668 1 μg/ml 72 hrs. More on the design: species or system mice. The procedure: Mice were orally administered one of those two compounds or hydroxychloroquine (“HCQ”) at either 20 mg/kg or 60 mg/kg daily for two weeks. After in vivo dosing, lymph nodes were removed and stimulated in vitro with CpG 1668 at 1 μg/ml for 72 hrs, after which supernatants were removed and assayed by ELISA for IL-6. Levels of dosing are indicated after each compound name appearing in the Figure.

Entries after “also recorded” stand apart in the source; their conditions may differ.

Turning to `c1cc(-c2nc3ccc(OCCCN4CCCCC4)cc3o2)ccc1OCCCN1CCCCC1` [Compound 30], half-maximal inhibition on human TLR7 (IC50) was put at 1.14 µM. Besides, the IC50 (in general, the concentration needed to halve the response being measured) in series [1] stood at 0.025 µM. The concentration for half-maximal inhibition (IC50) in series [2] came to 0.5 µM. For the same molecule, the inhibition in vivo at 20 mg/kg in series [3] was found to be 93%. Besides, in the series on NZBWF1/J mice (NZBWF1/J mice), the “histological examination of muscle, brain, kidney and spleen (hematoxylin and eosin)” value is on record as “no obvious pathology”; the anti-dsDNA entry is reported as “Neither of the compounds tested in this study, Compound 23 or Compound 30, showed an effect on anti-dsDNA”; the body weight result is “dose-related weight loss”; the “distribution of ANA scores” value is “no effect”. Also, the “anti-dsDNA at high dose” value with NZBWF1/J mice (NZBWF1/J mice, 60 mg/kg p.o.) is “some suppression of anti-dsDNA at the high dose of 60 mg/kg, but, this was not statistically significant”.
For `c1cc(CN2CCOCC2)ccc1CNCCCOc1ccc(-c2nc3ccc(OCCCNCc4ccc(CN5CCOCC5)cc4)cc3o2)cc1` [Compound 13], the half-inhibitory concentration (IC50) worked out at 0.46 µM against human TLR7 and 0.003 µM in series [1]. Besides, the inhibition in vivo at 20 mg/kg in series [3] came to 40%.
With `CCN(CC)CCNCCCOc1ccc(-c2nc3ccc(OCCCNCCN(CC)CC)cc3o2)cc1` [Compound 12], the IC50 at human TLR7 was found to be 0.78 µM; in series [1], 0.004 µM; in series [2], 0.5 µM.
As for `CN(C)CCCOc1ccc(-c2nc3ccc(OCCCN(C)C)cc3o2)cc1` [Compound 2], the concentration for half-maximal inhibition (IC50) at human TLR7 came to 2.21 µM; in series [1] it was 0.048 µM; in series [2], 0.5 µM. For the same molecule, the “IL-6 release in the lymph nodes” value in series [4] was “suppressed IL-6 release”.
For `c1cc(-c2nc3ccc(OCCCN4CCC(N5CCCC5)CC4)cc3o2)ccc1OCCCN1CCC(N2CCCC2)CC1` [Compound 20], the 50% inhibitory concentration (IC50) against human TLR7 turned out to be 1.82 µM; in series [1] it was 0.006 µM; in series [2], 0.7 µM. The “suppression of IL-6 (Table 3)” value in series [3] is recorded as “No suppression”. Besides, the inhibition in vivo at 20 mg/kg in series [3] came to 0%.
For `CN1CCN(c2ccc(CNCCCOc3ccc(-c4nc5ccc(OCCCNCc6ccc(N7CCN(C)CC7)cc6)cc5o4)cc3)cc2)CC1` [Compound 11], the values for the half-maximal inhibitory concentration (IC50) (against human TLR7; in series [1]; in series [2]) were 0.47 µM, 0.002 µM and 0.6 µM, respectively.
Turning to `CCN(CC)CCN(C)CCCOc1ccc(-c2nc3ccc(OCCCN(C)CCN(CC)CC)cc3o2)cc1` [Compound 31], the figures for the concentration for half-maximal inhibition (IC50) (at human TLR7; in series [1]; in series [2]) were 0.44 µM, 0.006 µM and 0.2 µM, respectively.
In the case of `CN(C)CCCN(C)CCCOc1ccc(-c2nc3ccc(OCCCN(C)CCCN(C)C)cc3o2)cc1` [Compound 27], the IC50 against human TLR7 was 0.98 µM; in series [1], 0.004 µM. In series [3], the inhibition in vivo at 20 mg/kg came out at 30%.
As to `CN1CCCN(CCCOc2ccc(-c3nc4ccc(OCCCN5CCCN(C)CC5)cc4o3)cc2)CC1` [Compound 14], the IC50 against human TLR7 was 0.62 µM. Besides, in series [1], the IC50 amounted to 0.004 µM. Besides, in series [3], the “suppression of IL-6 (Table 3)” value was “No suppression” and the inhibition in vivo at 20 mg/kg worked out at 0%.
Take `CN(C)CCN(C)CCCOc1ccc(-c2nc3ccc(OCCCN(C)CCN(C)C)cc3o2)cc1` [Compound 22]: the 50% inhibitory concentration (IC50) was found to be 0.5 µM against human TLR7 and 0.01 µM in series [1]. The inhibition in vivo at 20 mg/kg in series [3] stood at 36%.
Regarding `CN(C)[C@@H]1CCN(CCCOc2ccc(-c3nc4ccc(OCCCN5CC[C@@H](N(C)C)C5)cc4o3)cc2)C1` [Compound 16], the 50% inhibitory concentration (IC50) against human TLR7 is 0.43 µM; in series [1], 0.008 µM; in series [2] it was 0.4 µM. In addition, the inhibition in vivo at 20 mg/kg in series [3] stood at 50%.
Turning to `c1cc(-c2nc3ccc(OCCCN4CCCC4)cc3o2)ccc1OCCCN1CCCC1` [Compound 23], the 50% inhibitory concentration (IC50) against human TLR7 turned out to be 1.55 µM. Besides, inhibition in series [1] was half-maximal at 0.018 µM (IC50). The concentration for half-maximal inhibition (IC50) in series [2] stood at 0.6 µM. In series [3], the inhibition in vivo at 20 mg/kg worked out at 91%. In addition, the “IL-6 release in the lymph nodes, low dose” value in series [4] (20 mg/kg oral daily for two weeks) is reported as “particularly high levels of suppression”. For the same molecule, the “IL-6 release in the lymph nodes” value in series [4] was “suppressed IL-6 release”. Also, the proteinuria entry in the series with NZBWF1/J mice (NZB/W mice) is on record as “no effect”. Moreover, in the series on NZBWF1/J mice (NZBWF1/J mice), the “histological examination of muscle, brain, kidney and spleen (hematoxylin and eosin)” value is “no obvious pathology”; the anti-dsDNA entry is on record as “Neither of the compounds tested in this study, Compound 23 or Compound 30, showed an effect on anti-dsDNA; also recorded: no effect”; the body weight result is recorded as “dose-related weight loss”; the “distribution of ANA scores” value was “no effect”.
